From patent publication US9556200B2, “Tricyclic compound” (TAKEDA PHARMACEUTICAL COMPANY LIMITED, priority 2012, dated 2017)
Structures can show the parent of a compound that is named as a salt.

Each compound was assayed against serotonin 5-HT2C receptor (VSV type isoform, stably expressed in CHO cells) (Homo sapiens, UniProt P28335, I156V/I160V/N158S) (assay: cell-based). Details: read-out: ratio (%) relative to maximum response by 5-HT (10 μM).
Chain of serotonin 5-HT2C receptor (VSV type isoform, stably expressed in CHO cells) (P28335 33-458 I156V/N158S/I160V limits assumed): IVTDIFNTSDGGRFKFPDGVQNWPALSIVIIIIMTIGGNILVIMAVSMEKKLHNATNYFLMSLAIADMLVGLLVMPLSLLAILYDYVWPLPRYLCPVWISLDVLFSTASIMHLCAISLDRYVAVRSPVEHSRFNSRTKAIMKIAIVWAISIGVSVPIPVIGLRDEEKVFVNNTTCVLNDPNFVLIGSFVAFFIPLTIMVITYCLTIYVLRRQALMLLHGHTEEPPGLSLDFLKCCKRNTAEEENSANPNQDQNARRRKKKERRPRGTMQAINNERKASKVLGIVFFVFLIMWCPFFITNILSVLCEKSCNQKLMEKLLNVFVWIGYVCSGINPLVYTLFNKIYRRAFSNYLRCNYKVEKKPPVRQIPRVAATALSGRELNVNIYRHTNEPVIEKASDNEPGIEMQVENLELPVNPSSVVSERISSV

| Compound | Emax [%] | Emax at 10 µM [%] |
| --- | --- | --- |
| Clc1ccc2c3c1NCC3CNCC2 (centres unmarked) [Example 26, 9-chloro-2,2a,3,4,5,6-hexahydro-1H-azepino[3,4,5-cd]indole] | 98 |  |
| c1cc2c3c(c1)OCC3CNCC2 (centres unmarked) [Example 32, 2,2a,3,4,5,6-hexahydrofuro[4,3,2-ef][3]benzazepine hydrochloride] | 97 |  |
| c1cc2c3c(coc3c1)CNCC2 [Example 31, 3,4,5,6-tetrahydrofuro[4,3,2-ef][3]benzazepine hydrochloride] | 85 |  |
| CC(=O)N1CC2CNCCc3c(Cl)ccc1c32 (centres unmarked) [Example 22, 1-(7-chloro-2,2a,3,4,5,6-hexahydro-1H-azepino[3,4,5-cd]indol-1-yl)ethanone hydrochloride] | 105 |  |
| Cc1ccc2c3c1N(C)C[C@@H]3CNCC2 [Example 11, (2aS)-1,9-dimethyl-2,2a,3,4,5,6-hexahydro-1H-azepino[3,4,5-cd]indole 0.5 sulfate] | 102 |  |
| CN1C[C@H]2CNCCc3ccc(Cl)c1c32 [Example 8, (2aR)-9-chloro-1-methyl-2,2a,3,4,5,6-hexahydro-1H-azepino[3,4,5-cd]indole hydrochloride] | 105 |  |
| Cc1ccc2c3c1N(C)CC3CNCC2 (centres unmarked) [Example 10, 1,9-dimethyl-2,2a,3,4,5,6-hexahydro-1H-azepino[3,4,5-cd]indole hydrochloride] | 100 |  |
| CC(=O)N1C[C@@H]2CNCCc3ccc(Cl)c1c32 [Example 24, 1-((2aS)-9-chloro-2,2a,3,4,5,6-hexahydro-1H-azepino[3,4,5-cd]indol-1-yl)ethanone hydrochloride] | 96 |  |
| CC(=O)N1C[C@H]2CNCCc3ccc(Cl)c1c32 [Example 25, 1-((2aR)-9-chloro-2,2a,3,4,5,6-hexahydro-1H-azepino[3,4,5-cd]indol-1-yl)ethanone hydrochloride] | 96 |  |
| O=C(c1ccccc1)N1CC2CNCCc3c(Cl)cc(Cl)c1c32 (centres unmarked) [Example 39, 7,9-dichloro-1-(phenylcarbonyl)-2,2a,3,4,5,6-hexahydro-1H-azepino[3,4,5-cd]indole hydrochloride] | 93 |  |
| c1ccc(CN2CC3CNCCc4cccc2c43)cc1 (centres unmarked) [Example 19, 1-benzyl-2,2a,3,4,5,6-hexahydro-1H-azepino[3,4,5-cd]indole hydrochloride] | 96 |  |
| Clc1ccc2c3c1N(C1CC1)C[C@@H]3CNCC2 [Example 30, (2aS)-9-chloro-1-cyclopropyl-2,2a,3,4,5,6-hexahydro-1H-azepino[3,4,5-cd]indole] | 94 |  |
| CN1CC2CNCCc3ccc(Cl)c1c32 (centres unmarked) [Example 5, 9-chloro-1-methyl-2,2a,3,4,5,6-hexahydro-1H-azepino[3,4,5-cd]indole hydrochloride] | 108 |  |
| CC(C)N1C[C@@H]2CNCCc3ccc(Cl)c1c32 [Example 17, (2aS)-9-chloro-1-isopropyl-2,2a,3,4,5,6-hexahydro-1H-azepino[3,4,5-cd]indole hydrochloride] | 99 |  |
| c1cc2c3c(csc3c1)CNCC2 [Example 41, 3,4,5,6-tetrahydrothieno[4,3,2-ef][3]benzazepine hydrochloride] | 91 |  |
| CN1CC2CNCCc3c(Br)cc(Br)c1c32 (centres unmarked) [Example 14, 7,9-dibromo-1-methyl-2,2a,3,4,5,6-hexahydro-1H-azepino[3,4,5-cd]indole hydrochloride] |  | 87 |
| CC(C)C(=O)N1CC2CNCCc3cccc1c32 (centres unmarked) [Example 34, 1-(2,2a,3,4,5,6-hexahydro-1H-azepino[3,4,5-cd]indol-1-yl)-2-methylpropan-1-one hydrochloride] | 77 |  |
| c1cc2c3c(c1)NCC3CNCC2 (centres unmarked) [Example 2, 2,2a,3,4,5,6-hexahydro-1H-azepino[3,4,5-cd]indole dihydrochloride] | 107 |  |
| Cn1cc2c3c(cccc31)CCNC2 [Example 3, 1-methyl-3,4,5,6-tetrahydro-1H-azepino[3,4,5-cd]indole] | 106 |  |
| CN1CC2CNCCc3c(Br)ccc1c32 (centres unmarked) [Example 13, 7-bromo-1-methyl-2,2a,3,4,5,6-hexahydro-1H-azepino[3,4,5-cd]indole hydrochloride] | 81 |  |
| O=C(c1ccccc1)N1CC2CNCCc3c(Cl)ccc1c32 (centres unmarked) [Example 38, (7-chloro-2,2a,3,4,5,6-hexahydro-1H-azepino[3,4,5-cd]indol-1-yl)(phenyl)methanone hydrochloride] | 93 |  |

| Compound | Emax [%] | Emax at 10 µM [%] |
| --- | --- | --- |
| O=C(c1ccccc1)N1CC2CNCCc3ccc(Cl)c1c32 (centres unmarked) [Example 37, (9-chloro-2,2a,3,4,5,6-hexahydro-1H-azepino[3,4,5-cd]indol-1-yl)(phenyl)methanone hydrochloride] | 95 |  |
| CC(=O)N1CC2CNCCc3cccc1c32 (centres unmarked) [Example 20, 1-(2,2a,3,4,5,6-hexahydro-1H-azepino[3,4,5-cd]indol-1-yl)ethanone hydrochloride] | 94 |  |
| O=S1(=O)CC2CNCCc3cccc1c32 (centres unmarked) [Example 42, 2,2a,3,4,5,6-hexahydrothieno[4,3,2-ef][3]benzazepine 1,1-dioxide hydrochloride] | 102 |  |
| CC(=O)N1CC2CNCCc3c(Cl)cc(Cl)c1c32 (centres unmarked) [Example 23, 1-(7,9-dichloro-2,2a,3,4,5,6-hexahydro-1H-azepino[3,4,5-cd]indol-1-yl)ethanone] | 100 |  |
| O=C(c1ccccc1)N1CC2CNCCc3cccc1c32 (centres unmarked) [Example 36, 2,2a,3,4,5,6-hexahydro-1H-azepino[3,4,5-cd]indol-1-yl(phenyl)methanone hydrochloride] | 79 |  |
| CN1CC2CNCCc3c(Cl)ccc1c32 (centres unmarked) [Example 6, 7-chloro-1-methyl-2,2a,3,4,5,6-hexahydro-1H-azepino[3,4,5-cd]indole hydrochloride] | 98 |  |
| CN1CC2CNCCc3c(Cl)cc(Cl)c1c32 (centres unmarked) [Example 7, 7,9-dichloro-1-methyl-2,2a,3,4,5,6-hexahydro-1H-azepino[3,4,5-cd]indole] | 97 |  |
| Clc1ccc2c3c1OCC3CNCC2 (centres unmarked) [Example 33, 9-chloro-2,2a,3,4,5,6-hexahydrofuro[4,3,2-ef][3]benzazepine hydrochloride] | 94 |  |
| c1cc2c3c(c[nH]c3c1)CNCC2 [Example 1, 3,4,5,6-tetrahydro-1H-azepino[3,4,5-cd]indole hydrochloride] | 104 |  |
| CN1C[C@@H]2CNCCc3ccc(Cl)c1c32 [Example 9, (2aS)-9-chloro-1-methyl-2,2a,3,4,5,6-hexahydro-1H-azepino[3,4,5-cd]indole hydrochloride] | 109 |  |
| CC(=O)N1CC2CNCCc3ccc(Cl)c1c32 (centres unmarked) [Example 21, 1-(9-chloro-2,2a,3,4,5,6-hexahydro-1H-azepino[3,4,5-cd]indol-1-yl)ethanone hydrochloride] | 109 |  |
| CC(C)N1CC2CNCCc3ccc(Cl)c1c32 (centres unmarked) [Example 16, 9-chloro-1-isopropyl-2,2a,3,4,5,6-hexahydro-1H-azepino[3,4,5-cd]indole hydrochloride] | 101 |  |
| Cc1ccc2c3c1N(C)C[C@H]3CNCC2 [Example 12, (2aR)-1,9-dimethyl-2,2a,3,4,5,6-hexahydro-1H-azepino[3,4,5-cd]indole 0.5 sulfate] | 102 |  |
| CC(C)C(=O)N1CC2CNCCc3c(Cl)ccc1c32 (centres unmarked) [Example 35, 1-(7-chloro-2,2a,3,4,5,6-hexahydro-1H-azepino[3,4,5-cd]indol-1-yl)-2-methylpropan-1-one hydrochloride] | 99 |  |
| CN1CC2CNCCc3cccc1c32 (centres unmarked) [Example 4, 1-methyl-2,2a,3,4,5,6-hexahydro-1H-azepino[3,4,5-cd]indole hydrochloride] | 100 |  |
| c1cc2c3c(c1)SCC3CNCC2 (centres unmarked) [Example 43, 2,2a,3,4,5,6-hexahydrothieno[4,3,2-ef][3]benzazepine hydrochloride] | 107 |  |
| CCN1C[C@@H]2CNCCc3ccc(Cl)c1c32 [Example 29, (2aS)-9-chloro-1-ethyl-2,2a,3,4,5,6-hexahydro-1H-azepino[3,4,5-cd]indole hydrochloride] | 93 |  |
| CC(C)N1CC2CNCCc3cccc1c32 (centres unmarked) [Example 15, 1-isopropyl-2,2a,3,4,5,6-hexahydro-1H-azepino[3,4,5-cd]indole hydrochloride] | 98 |  |
| CC(C)c1ccc2c3c1N(C)CC3CNCC2 (centres unmarked) [Example 40, 9-isopropyl-1-methyl-2,2a,3,4,5,6-hexahydro-1H-azepino[3,4,5-cd]indole] | 93 |  |
| CC(C)N1C[C@H]2CNCCc3ccc(Cl)c1c32 [Example 18, (2aR)-9-chloro-1-isopropyl-2,2a,3,4,5,6-hexahydro-1H-azepino[3,4,5-cd]indole hydrochloride] | 105 |  |
